According to patent US20100273650A1, “Fungicidal Mixtures Comprising a Substituted 3-Hydroxymethylpyridine and a Further Fungicidal Compound” (BASF SE, priority 2007, published 2010):
Where two headings read alike, the source gives them in different places.

How the values were obtained:
Assay type in all cases: cell-based
Septoria tritici = assay: Activity against leaf blotch on wheat caused by Septoria tritici in the microtiter test (Septtr); conditions: single active compound, 405 nm, day 7 after inoculation
Phytophthora infestans = assay: microbe, parasite or virus in culture; conditions: 168 h, read-out: Observed efficacy
Pyricularia oryzae = conditions: single active compound, 405 nm, 7 days after inoculation

Compound `CC(Cc1ccc(C(C)(C)C)cc1)CN1C[C@@H](C)O[C@@H](C)C1` (mixture of isomers) [Fenpropimorph, (RS)-cis-4-[3-(4-tert-butylphenyl)-2-methylpropyl]-2,6-dimethylmorpholine] has an Observed efficacy (Septoria tritici; 1 ppm) of 9%.
Compound `CCCCCCCCc1c(CC)nc2ncnn2c1N` [5-ethyl-6-octyl-[1,2,4]triazolo[1,5-a]pyrimidine-7-ylamine] has an inhibition of growth at 0.25 ppm (Phytophthora infestans) of 29%.
`O=C1C2CC=CCC2C(=O)N1SC(Cl)(Cl)Cl` (stereo not drawn) [Captan, 2-trichloromethylsulfanyl-3a,4,7,7a-tetrahydroisoindole-1,3-dione] was tested, and the inhibition of growth at 1 ppm (Phytophthora infestans) was 26%.
`COC(=O)Nc1nc2ccccc2[nH]1` [Carbendazim, methyl (1H-benzoimidazol-2-yl)-carbamate] was tested, and the Observed efficacy (Pyricularia oryzae; 0.25 ppm) was 24%.
`N#Cc1c(Cl)c(Cl)c(Cl)c(C#N)c1Cl` [Chlorothalonil, 2,4,5,6-tetrachloroisophthalonitrile] gave an inhibition of growth at 0.25 ppm (Phytophthora infestans) of 10%.
With `CNC(=O)/C(=N/OC)c1ccccc1COc1cc(C)ccc1C` [Dimoxystrobin, (E)-2-(methoxyimino)-N-methyl-2-[α-(2,5-xylyloxy)-o-tolyl]acetamide] the inhibition of growth at 0.25 ppm (Phytophthora infestans) was 42%.
For `OC(c1cccnc1)c1c(-c2ccc(Cl)cc2)csc1-c1ccc(Cl)cc1` (stereo not drawn) [I.8, 2,4-Bis-(4-chlorophenyl)-3-[(3-pyridyl)hydroxymethyl]thiophene], the Observed efficacy (Pyricularia oryzae; 0.25 ppm) was 2%, the Observed efficacy (Pyricularia oryzae; 1 ppm) was 0% and the inhibition of growth at 0.063 ppm (Phytophthora infestans) was 2%. For the same compound, the inhibition of growth at 0.25 ppm (Phytophthora infestans) was 1%, the inhibition of growth at 1 ppm (Phytophthora infestans) was 4% and the inhibition of growth at 4 ppm (Phytophthora infestans) was 19%. It also gave an Observed efficacy (Septoria tritici; 0.063 ppm) of 4% and an Observed efficacy (Septoria tritici; 0.25 ppm) of 10%.
`OC(c1cccnc1)c1c(-c2ccc(F)cc2F)csc1-c1ccc(F)cc1F` (stereo not drawn) [I.16, 2,4-Bis-(2,4-Difluorophenyl)-3-[(3-pyridyl)hydroxymethyl]thiophene] gave an Observed efficacy (Pyricularia oryzae; 1 ppm) of 0% and an inhibition of growth at 1 ppm (Phytophthora infestans) of 0%.
With `Cc1ccc(C(C)NC(=O)[C@@H](NC(=O)OC(C)C)C(C)C)cc1` (stereo partly drawn) [Iprovalicarb, isopropyl [(1S)-2-methyl-1-(1-p-tolylethylcarbamoyl)propyl]carbamate] the inhibition of growth at 1 ppm (Phytophthora infestans) was 66%.
In the case of `OC(Cc1ccccc1Cl)(Cn1nc[nH]c1=S)C1(Cl)CC1` (stereo not drawn) [Prothioconazole, 2-[2-(1-chlorocyclopropyl)-3-(2-chlorophenyl)-2-hydroxypropyl]-2,4-dihydro-[1,2,4]triazole-3-thione], the inhibition of growth at 16 ppm (Phytophthora infestans) is reported as 22%.
In the case of `CC(C)(C)C(O)(CCc1ccc(Cl)cc1)Cn1cncn1` (stereo not drawn) [Tebuconazol, 1-(4-chlorophenyl)-4,4-dimethyl-3-[1,2,4]triazol-1-ylmethylpentan-3-ol], the Observed efficacy (Septoria tritici; 0.25 ppm) is reported as 63%.
For `CCCCCCCCCCCCCN1CC(C)OC(C)C1` (stereo not drawn) [Tridemorph, 2,6-dimethyl-4-tridecylmorpholine], the Observed efficacy (Septoria tritici; 1 ppm) was 3%.
For “zinc propylenebis(dithiocarbamate) polymer [Propineb]”, the Observed efficacy (Pyricularia oryzae; 1 ppm) was 23%.
